This passage reports IC50 results from US20110212968A1, “PHENETHYLAMIDE DERIVATIVES AND THEIR HETEROCYCLIC ANALOGUES” (priority 2008, published 2011).

Test [1] has as its target T1, human orexin-2 receptor (Homo sapiens, UniProt O43614).
T1 construct: expressed in transfected cells; host or cells: CHO (Chinese hamster ovary) cells, kept under G418 selection
T1 sequence (O43614 1-444): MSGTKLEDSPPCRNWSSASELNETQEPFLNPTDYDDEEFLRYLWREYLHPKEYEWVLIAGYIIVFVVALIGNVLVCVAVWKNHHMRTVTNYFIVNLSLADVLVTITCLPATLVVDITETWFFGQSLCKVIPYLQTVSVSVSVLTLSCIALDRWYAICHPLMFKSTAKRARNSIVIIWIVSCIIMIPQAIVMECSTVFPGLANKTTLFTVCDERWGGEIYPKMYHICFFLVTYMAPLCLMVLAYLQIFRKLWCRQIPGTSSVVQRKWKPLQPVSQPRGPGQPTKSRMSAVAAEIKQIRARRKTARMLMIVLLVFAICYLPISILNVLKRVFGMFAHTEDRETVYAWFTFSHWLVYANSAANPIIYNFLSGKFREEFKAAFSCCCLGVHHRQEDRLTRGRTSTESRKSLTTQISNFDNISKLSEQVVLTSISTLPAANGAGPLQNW
In words: Intracellular calcium measurement (FLIPR Tetra), orexin receptor antagonistic activity, OX2. Type of test: cell-based. The conditions noted are these: CHO cells expressing human orexin-2 receptor, 3 nM orexin-A, conditions B. In outline: (§1)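 Recombinant CHO cells expressing human OX1 or OX2, loaded with fluo-4 AM plus probenecid, were preincubated with antagonist 10 min, then stimulated with 3 nM human orexin-A. Peak fluorescence was compared with vehicle; IC50 derived, sometimes normalized to an on-plate reference compound; two pipetting/cell-splitting conditions were used.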
In general terms: Calcium assays in cells follow changes in intracellular calcium, usually with a dye or a luminescent sensor.

Test [2] deals with T2, human orexin-1 receptor (Homo sapiens, UniProt O43613).
T2 construct: expressed in transfected cells; host or cells: CHO (Chinese hamster ovary) cells, kept under G418 selection
T2 sequence (O43613 1-425): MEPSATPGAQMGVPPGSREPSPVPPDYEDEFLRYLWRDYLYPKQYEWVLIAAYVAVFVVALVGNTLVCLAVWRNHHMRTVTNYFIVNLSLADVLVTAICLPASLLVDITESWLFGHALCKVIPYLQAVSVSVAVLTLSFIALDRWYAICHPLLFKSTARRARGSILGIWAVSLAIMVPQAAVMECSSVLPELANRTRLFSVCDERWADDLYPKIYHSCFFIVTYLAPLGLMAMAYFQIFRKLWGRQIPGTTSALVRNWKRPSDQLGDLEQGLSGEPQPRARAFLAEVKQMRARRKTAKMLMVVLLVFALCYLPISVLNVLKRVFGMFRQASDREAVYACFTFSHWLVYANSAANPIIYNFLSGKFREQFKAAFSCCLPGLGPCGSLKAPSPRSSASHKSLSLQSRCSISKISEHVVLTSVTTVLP
As to the kind of experiment: Intracellular calcium measurement (FLIPR Tetra), orexin receptor antagonistic activity, OX1. Type of test: cell-based. The conditions noted are these: CHO cells expressing human orexin-1 receptor, 3 nM orexin-A, conditions B. In outline:
as §1

Setting [3] is: normalized (*) using IC50 of on-plate reference compound.

On to `COc1ccc(-c2cccnc2C(=O)N(CCO)CCc2c[nH]c3ccc(F)cc23)cn1` [Example 318, 6′-Methoxy-[3,3′]bipyridinyl-2-carboxylic acid [2-(5-fluoro-1H-indol-3-yl)-ethyl]-(2-hydroxy-ethyl)-amide], for which the IC50 in test [1] (setting [3]) is 848 nM; in test [2] (setting [3]) it was > 5420 nM.
Taken in the same sequence, the figures for `COc1ccc2[nH]cc(CCN(CC3CC3)C(=O)c3nccnc3-c3ccccc3)c2c1` [Example 322, 3-Phenyl-pyrazine-2-carboxylic acid cyclopropylmethyl-[2-(5-methoxy-1H-indol-3-yl)-ethyl]-amide] were 24 nM and 190 nM.
On the same counts, the results for `Cc1ccc2[nH]cc(CCN(CC3CC3)C(=O)c3nccnc3-c3ccccc3)c2c1` [Example 324, 3-Phenyl-pyrazine-2-carboxylic acid cyclopropylmethyl-[2-(5-methyl-1H-indol-3-yl)-ethyl]-amide] are 8 nM and 77 nM.
Taken in the same sequence, the figures for `Cc1cccc2c(CCN(CC3CC3)C(=O)c3nccnc3-c3ccccc3)c[nH]c12` [Example 326, 3-Phenyl-pyrazine-2-carboxylic acid cyclopropylmethyl-[2-(7-methyl-1H-indol-3-yl)-ethyl]-amide] were 8 nM and 76 nM.
Consider `Cc1ccc(-c2nccnc2C(=O)N(CCc2cn(C)c3ccccc23)CC2CC2)cc1C` [Example 330, 3-(3,4-Dimethyl-phenyl)-pyrazine-2-carboxylic acid cyclopropylmethyl-[2-(1-methyl-1H-indol-3-yl)-ethyl]-amide], for which the IC50 in test [1] (setting [3]) worked out at 8 nM; in test [2] (setting [3]) it was 18 nM.
Taken in the same sequence, the figures for `Cc1ccc(-c2nccnc2C(=O)N(CCc2c[nH]c3cc(Cl)ccc23)CC2CC2)cc1C` [Example 331, 3-(3,4-Dimethyl-phenyl)-pyrazine-2-carboxylic acid [2-(6-chloro-1H-indol-3-yl)-ethyl]-cyclopropylmethyl-amide] were 22 nM and 62 nM.
Taken in the same sequence, the figures for `Cc1ccc(-c2nccnc2C(=O)N(CCc2c[nH]c3c(C)cccc23)CC2CC2)cc1C` [Example 337, 3-(3,4-Dimethyl-phenyl)-pyrazine-2-carboxylic acid cyclopropylmethyl-[2-(7-methyl-1H-indol-3-yl)-ethyl]-amide] were 5 nM and 16 nM.
Taken in the same sequence, the figures for `Cc1ccc(-c2nccnc2C(=O)N(CCc2c[nH]c3c(F)cccc23)CC2CC2)cc1C` [Example 340, 3-(3,4-Dimethyl-phenyl)-pyrazine-2-carboxylic acid cyclopropylmethyl-[2-(7-fluoro-1H-indol-3-yl)-ethyl]-amide] were 53 nM and 99 nM.
For `COc1ccc(-c2sc(C)nc2C(=O)N(CCc2cn(C)c3ccccc23)CC2CC2)cn1` [Example 341, 5-(6-Methoxy-pyridin-3-yl)-2-methyl-thiazole-4-carboxylic acid cyclopropylmethyl-[2-(1-methyl-1H-indol-3-yl)-ethyl]-amide], the IC50 was 36 nM in test [1] (setting [3]) and 18 nM in test [2] (setting [3]).
On the same counts, the results for `COc1ccc(-c2sc(C)nc2C(=O)N(CCc2c[nH]c3cc(F)ccc23)CC2CC2)cn1` [Example 350, 5-(6-Methoxy-pyridin-3-yl)-2-methyl-thiazole-4-carboxylic acid cyclopropylmethyl-[2-(6-fluoro-1H-indol-3-yl)-ethyl]-amide] are 17 nM and 4 nM.
Taken in the same sequence, the figures for `COc1ccc(-c2cccnc2C(=O)N(CCc2cn(C)c3ccccc23)CC2CC2)cn1` [Example 352, 6′-Methoxy-[3,3′]bipyridinyl-2-carboxylic acid cyclopropylmethyl-[2-(1-methyl-1H-indol-3-yl)-ethyl]-amide] were 37 nM and 20 nM.
On to `COc1ccc(-c2cccnc2C(=O)N(CCc2c[nH]c3cc(Cl)ccc23)CC2CC2)cn1` [Example 353], for which the IC50 came to 23 nM in test [1] (setting [3]) and 87 nM in test [2] (setting [3]).
Taken in the same sequence, the figures for `COc1ccc(-c2cccnc2C(=O)N(CCc2c[nH]c3ccc(C)cc23)CC2CC2)cn1` [Example 357] were 30 nM and 14 nM.
On the same counts, the results for `COc1ccc(-c2cccnc2C(=O)N(CCc2c[nH]c3cc(F)ccc23)CC2CC2)cn1` [Example 361] are 60 nM and 35 nM.
On the same counts, the results for `COc1ccc2nc(CCN(CC3CC3)C(=O)c3ncccc3-c3ccc(OC)nc3)[nH]c2c1` [Example 371, 6′-Methoxy-[3,3′]bipyridinyl-2-carboxylic acid cyclopropylmethyl-[2-(6-methoxy-1H-benzoimidazol-2-yl)-ethyl]-amide] are 89 nM and 1860 nM.
As to `Cc1ccc(-c2nccnc2C(=O)N(CCc2nc3cc(C)c(C)cc3[nH]2)CC2CC2)cc1C` [Example 374, 3-(3,4-Dimethyl-phenyl)-pyrazine-2-carboxylic acid cyclopropylmethyl-[2-(5,6-dimethyl-1H-benzoimidazol-2-yl)-ethyl]-amide], the IC50 in test [1] (setting [3]) worked out at 35 nM; in test [2] (setting [3]), 102 nM.
Regarding `Cc1ccc(-c2sc(N(C)C)nc2C(=O)N(CCc2nc3cc(C)c(C)cc3[nH]2)CC2CC2)cc1C` [Example 377, 2-Dimethylamino-5-(3,4-dimethyl-phenyl)-thiazole-4-carboxylic acid cyclopropylmethyl-[2-(5,6-dimethyl-1H-benzoimidazol-2-yl)-ethyl]-amide], the IC50 in test [1] (setting [3]) was 261 nM; in test [2] (setting [3]), 114 nM.
Take `COc1ccc(-c2sc(C)nc2C(=O)N(CCc2c[nH]c3cc4c(cc23)OCO4)CC2CC2)cn1` [Example 382, 5-(6-Methoxy-pyridin-3-yl)-2-methyl-thiazole-4-carboxylic acid cyclopropylmethyl-[2-(5H-[1,3]dioxolo[4,5-f]indol-7-yl)-ethyl]-amide]: the values for the IC50 in test [1] (setting [3]) and in test [2] (setting [3]) were 12 nM and 427 nM, respectively.
Consider `COc1ccc(CCN(CC2CC2)C(=O)c2ccncc2-c2cccc(C)c2)cc1OC` [Example 386, N-Cyclopropylmethyl-N-[2-(3,4-dimethoxy-phenyl)-ethyl]-3-m-tolyl-isonicotinamide], for which the IC50 in test [1] came to 5 nM; in test [2] it was 234 nM.
Regarding `COc1cccc(-c2cnccc2C(=O)N(CCc2ccc(OC)c(OC)c2)CC2CC2)c1` [Example 389, N-Cyclopropylmethyl-N-[2-(3,4-dimethoxy-phenyl)-ethyl]-3-(3-methoxy-phenyl)-isonicotinamide], the IC50 came out at 6 nM in test [1] and 282 nM in test [2].
Taken in the same sequence, the figures for `COc1ccc(CCN(CC2CC2)C(=O)c2ncccc2-c2cccc(C)c2)cc1OC` [Example 390, 3-m-Tolyl-pyridine-2-carboxylic acid cyclopropylmethyl-[2-(3,4-dimethoxy-phenyl)-ethyl]-amide] were 4 nM and 182 nM.
In the case of `COc1ccc(CCN(CC2CC2)C(=O)c2ncccc2-c2ccc(C)cc2)cc1OC` [Example 391], the IC50 in test [1] is 4 nM; in test [2], 388 nM.
Taken in the same sequence, the figures for `COc1cccc(-c2cccnc2C(=O)N(CCc2ccc(OC)c(OC)c2)CC2CC2)c1` [Example 393, 3-(3-Methoxy-phenyl)-pyridine-2-carboxylic acid cyclopropyl-methyl-[2-(3,4-dimethoxy-phenyl)-ethyl]-amide] were 3 nM and 108 nM.
Taken in the same sequence, the figures for `COc1ccc(CCN(CC2CC2)C(=O)c2cccnc2-c2cccc(C)c2)cc1OC` [Example 394, N-Cyclopropylmethyl-N-[2-(3,4-dimethoxy-phenyl)-ethyl]-2-m-tolyl-nicotinamide] were 4 nM and 156 nM.
Regarding `COc1ccc(CCN(CC2CC2)C(=O)c2cccnc2-c2ccc(C)cc2)cc1OC` [Example 395, N-Cyclopropylmethyl-N-[2-(3,4-dimethoxy-phenyl)-ethyl]-2-p-tolyl-nicotinamide], the values for the IC50 in test [1] and in test [2] were 10 nM and 286 nM, respectively.
For `COc1cccc(-c2ncccc2C(=O)N(CCc2ccc(OC)c(OC)c2)CC2CC2)c1` [Example 397, N-Cyclopropylmethyl-N-[2-(3,4-dimethoxy-phenyl)-ethyl]-2-(3-methoxy-phenyl)-nicotinamide], the IC50 in test [1] came out at 7 nM; in test [2] it was 266 nM.

Broadly, the IC50 is the midpoint of a concentration-inhibition curve.
